Source: patent US11617711B2, “Compositions and methods for dental care” (UNIVERSITY OF WASHINGTON, priority 2018, dated 2023)
“Also recorded” adds a separate entry of the source.

Key:
[1] = Thermal cycling of remineralized dentin samples in artificial saliva, SEM; set-up: species or system human; details: 3 rounds remineralized, 2,500 cycles (90 days) between 5 C and 50 C
Protocol: To ensure the thermal durability of the newly formed mineral layer on the dentin surface, thermal cycling tests were conducted on remineralized samples. After three rounds of peptide-guided remineralization, the sample was placed in a vial containing an artificial saliva solution consisting of 130 mM KCl, 20 mM HEPES, 1.5 mM CaCl2, 0.9 mM KH2PO4, and 1 mM NaCl. In order to mimic the temperature changes in the natural oral environment, the remineralized sample was cycled between 5 C and 50 C, holding for 30 seconds at each temperature. SEM images were taken of the mineral layer after 200 cycles (6 days) and 2,500 cycles (90 days) to compare the effects of thermal cycling at different time periods.

[2] = Fluoride delivery to tooth surface, EDXS of mineral layer; details: tooth surface treated with shADP5, then ionic fluoride (1100 ppm) delivered with ionic PO4
Protocol: shADP5 enables the delivery of ionic fluoride delivery to the tooth surface. After the tooth surface was treated shADP5, ionic fluoride was delivered with ionic PO4.

[3] = Visual observation of diffusion and mineralization reaction of calcium and phosphate gels on glass slide; type: physicochemical; details: gel formulation, calcium and phosphate gel drops on glass slide
Source text: Active ingredients stored separately in their respective gel/varnish/toothpaste formulations is important in preventing premature mineralization reactions. In all formulations, the peptide is to be delivered first, then the ionic calcium/phosphate or ionic calcium/phosphate/fluoride are delivered second. Understanding the reaction time is useful to characterize the prescribed treatment time and procedure. To inform treatment protocol, an experiment was designed in which two drops of gels containing calcium and phosphate were mixed with peptide gel and placed next each other on a glass slide close enough that upon subsequent spreading of the two droplets, they would come to contact with each other at their respective edges. Mineralization reactions were monitored visually be observing parts of the gels turning from clear (unreacted) to white (reacted).
Then the inverses of both quantities were taken to enable the determination of the diffusion constant based on the following equation: 1/t=D (1/x), where t is time, x is the width of reacted mineral (appear as white in FIG. 18) and D is the diffusion constant in units of mm/min. Shown in FIG. 19 is an example of the derived diffusion constants.

Sequence | mineral layer after thermal cycling [1] | fluoride in the mineral layer (EDXS) [2] | extent of mineralization reaction versus without peptide [3]
SYEKSHSQAINTDRT [sADP5, shortened amelogenin derived peptide 5] | still present; also recorded: thermally stable | – | –
SYENSHSQAINVDRT [shADP5] | – | incorporated | more extensive
